Source: article PMC6161059 (ACS Central Science, 2018)

How the values were obtained:
[1] = molecular target: β2AR(1.19H4) (Homo sapiens, UniProt P07550, INS20HHHH); test: Fluorescence Ca2+ imaging; type: cell-based; conditions: 1 µM MAC(β2AR, O4), 5 µM U73122
[2] = molecular target: T1, M1R(1.18H4) (Homo sapiens, UniProt P11229); type: cell-based; conditions: CHO cells, 1 μM Ni–NTA
T1 sequence (P11229 1-460): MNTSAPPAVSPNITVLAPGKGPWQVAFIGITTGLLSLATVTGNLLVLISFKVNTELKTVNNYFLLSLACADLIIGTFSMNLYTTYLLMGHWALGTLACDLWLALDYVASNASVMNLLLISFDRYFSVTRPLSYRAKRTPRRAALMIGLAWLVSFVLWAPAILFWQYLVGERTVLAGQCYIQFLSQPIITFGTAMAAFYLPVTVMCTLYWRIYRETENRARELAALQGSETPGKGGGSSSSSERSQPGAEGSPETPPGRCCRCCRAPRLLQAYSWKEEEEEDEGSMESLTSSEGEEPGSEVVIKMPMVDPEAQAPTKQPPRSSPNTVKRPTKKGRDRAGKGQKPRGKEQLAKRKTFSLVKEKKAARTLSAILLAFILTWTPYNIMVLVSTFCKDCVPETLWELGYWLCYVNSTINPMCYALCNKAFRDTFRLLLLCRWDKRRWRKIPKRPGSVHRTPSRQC

Structure (SMILES) | MAC(β2AR, O4)-induced Ca2+ response in presence of PLC inhibitor [1] | concentration–response on addition of Ni–NTA [2]
COc1ccc2c(c1)CC[C@@H]1[C@@H]2CC[C@]2(C)[C@@H](NCCCCCCN3C(=O)C=CC3=O)CC[C@@H]12 [U73122] | no response was detected | 
C[N+](C)(C)CC#CCOC1=NOCC1 [iperoxo] |  | unaffected
